According to US8846698B2, “Pyrrolo[2,3-d]pyrimidine tropomysin-related kinase inhibitors” (Pfizer Limited, priority 2011, dated 2014):

Target: TRKA (Homo sapiens (Human), UniProt P04629)
Assay: Isolated TRK enzyme assay (HTRF KinEASE-TK), TRKA
Format: biochemical
Conditions: read-out: Trka enzyme (IC50)

Chain of TRKA (P04629 441-796): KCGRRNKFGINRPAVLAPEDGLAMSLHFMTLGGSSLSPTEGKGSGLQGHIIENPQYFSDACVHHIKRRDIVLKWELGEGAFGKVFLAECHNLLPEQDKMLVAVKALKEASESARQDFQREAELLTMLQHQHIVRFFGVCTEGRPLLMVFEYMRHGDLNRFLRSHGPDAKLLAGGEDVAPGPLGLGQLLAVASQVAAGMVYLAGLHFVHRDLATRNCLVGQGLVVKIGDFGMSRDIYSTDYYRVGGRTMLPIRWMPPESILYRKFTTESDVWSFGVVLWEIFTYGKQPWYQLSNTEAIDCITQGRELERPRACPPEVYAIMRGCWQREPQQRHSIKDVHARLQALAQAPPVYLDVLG

IC50 [µM] | SMILES
0.633 | CC(C)n1cc(C(=O)c2cncc(NC(=O)c3cc4cnccc4[nH]3)c2)c2cncnc21 [Example 454, 1H-Pyrrolo[3,2-c]pyridine-2-carboxylic acid [5-(7-isopropyl-7H-pyrrolo[2,3-d]pyrimidine-5-carbonyl)-pyridin-3-yl]-amide]
6.96 | Cc1nc(C)c(C(=O)Nc2cncc(C(=O)c3cn(C(C)C)c4ncncc34)c2)o1 [Example 456, 2,4-Dimethyl-oxazole-5-carboxylic acid [5-(7-isopropyl-7H-pyrrolo[2,3-d]pyrimidine-5-carbonyl)-pyridin-3-yl]-amide]
9.8 | Cc1nc2ncccn2c1C(=O)Nc1cncc(C(=O)c2cn(C(C)C)c3ncncc23)c1 [Example 461, 2-Methyl-imidazo[1,2-a]pyrimidine-3-carboxylic acid [5-(7-isopropyl-7H-pyrrolo[2,3-d]pyrimidine-5-carbonyl)-pyridin-3-yl]-amide]
1.32 | Cc1cc(C(=O)Nc2cncc(C(=O)c3cn(C(C)C)c4ncncc34)c2)no1 [Example 462, 5-Methyl-isoxazole-3-carboxylic acid [5-(7-isopropyl-7H-pyrrolo[2,3-d]pyrimidine-5-carbonyl)-pyridin-3-yl]-amide]
0.186 | COc1cc(OC)nc(C(=O)Nc2cncc(C(=O)c3cn(C(C)C)c4ncncc34)c2)n1 [Example 463, 4,6-Dimethoxy-pyrimidine-2-carboxylic acid [5-(7-isopropyl-7H-pyrrolo[2,3-d]pyrimidine-5-carbonyl)-pyridin-3-yl]-amide]
3.01 | Cc1cncc(C(=O)Nc2cncc(C(=O)c3cn(C(C)C)c4ncncc34)c2)n1 [Example 464, 6-Methyl-pyrazine-2-carboxylic acid[5-(7-isopropyl-7H-pyrrolo[2,3-d]pyrimidine-5-carbonyl)-pyridin-3-yl]-amide]
2.13 | CC(C)n1cc(C(=O)c2cncc(NC(=O)c3cn(C)cn3)c2)c2cncnc21 [Example 465, 1-Methyl-1H-imidazole-4-carboxylic acid [5-(7-isopropyl-7H-pyrrolo[2,3-d]pyrimidine-5-carbonyl)-pyridin-3-yl]-amide]
5.1 | CC(C)n1cc(C(=O)c2cncc(NC(=O)c3nccn3C)c2)c2cncnc21 [Example 468, 1-Methyl-1H-imidazole-2-carboxylic acid [5-(7-isopropyl-7H-pyrrolo[2,3-d]pyrimidine-5-carbonyl)-pyridin-3-yl]-amide]
0.523 | COCc1cc(C(=O)Nc2cncc(C(=O)c3cn(C(C)C)c4ncncc34)c2)no1 [Example 469, 5-Methoxymethyl-isoxazole-3-carboxylic acid [5-(7-isopropyl-7H-pyrrolo[2,3-d]pyrimidine-5-carbonyl)-pyridin-3-yl]-amide]
1.72 | CC(C)n1cc(C(=O)c2cncc(NC(=O)c3ncncc3Br)c2)c2cncnc21 [Example 472, 5-Bromo-pyrimidine-4-carboxylic acid [5-(7-isopropyl-7H-pyrrolo[2,3-d]pyrimidine-5-carbonyl)-pyridin-3-yl]-amide]
0.643 | Cc1n[nH]c2ncc(C(=O)Nc3cncc(C(=O)c4cn(C(C)C)c5ncncc45)c3)cc12 [Example 475, 3-Methyl-1H-pyrazolo[3,4-b]pyridine-5-carboxylic acid [5-(7-isopropyl-7H-pyrrolo[2,3-d]pyrimidine-5-carbonyl)-pyridin-3-yl]-amide]
3.03 | Cc1ocnc1C(=O)Nc1cncc(C(=O)c2cn(C(C)C)c3ncncc23)c1 [Example 477, 5-Methyl-oxazole-4-carboxylic acid [5-(7-isopropyl-7H-pyrrolo[2,3-d]pyrimidine-5-carbonyl)-pyridin-3-yl]-amide]
0.587 | CC(C)n1cc(C(=O)c2cncc(NC(=O)c3cc4cscc4cn3)c2)c2cncnc21 [Example 478, Thieno[3,4-c]pyridine-6-carboxylic acid [5-(7-isopropyl-7H-pyrrolo[2,3-d]pyrimidine-5-carbonyl)-pyridin-3-yl]-amide]
2.16 | Cc1cc(C(=O)Nc2cncc(C(=O)c3cn(C(C)C)c4ncncc34)c2)nc(C)n1 [Example 479, 2,6-Dimethyl-pyrimidine-4-carboxylic acid [5-(7-isopropyl-7H-pyrrolo[2,3-d]pyrimidine-5-carbonyl)-pyridin-3-yl]-amide]
0.531 | CC(C)n1cc(C(=O)c2cncc(NC(=O)c3cc(C#N)ccn3)c2)c2cncnc21 [Example 480, 4-Cyano-pyridine-2-carboxylic acid [5-(7-isopropyl-7H-pyrrolo[2,3-d]pyrimidine-5-carbonyl)-pyridin-3-yl]-amide]
0.313 | COCc1cc(C(=O)Nc2cncc(C(=O)c3cn(C(C)C)c4ncncc34)c2)nn1C [Example 481, 5-Methoxymethyl-1-methyl-1H-pyrazole-3-carboxylic acid [5-(7-isopropyl-7H-pyrrolo[2,3-d]pyrimidine-5-carbonyl)-pyridin-3-yl]-amide]
6.86 | CC(C)n1cc(C(=O)c2cncc(NC(=O)c3nc(Cl)c(Cl)[nH]3)c2)c2cncnc21 [Example 482, 4,5-Dichloro-1H-imidazole-2-carboxylic acid [5-(7-isopropyl-7H-pyrrolo[2,3-d]pyrimidine-5-carbonyl)-pyridin-3-yl]-amide]

More lines, now with the values behind:

SMILES | IC50 [µM]
Cc1cc(C(=O)Nc2cncc(C(=O)c3cn(C(C)C)c4ncncc34)c2)n(CC(F)(F)F)n1 [Example 450, 5-Methyl-2-(2,2,2-trifluoro-ethyl)-2H-pyrazole-3-carboxylic acid [5-(7-isopropyl-7H-pyrrolo[2,3-d]pyrimidine-5-carbonyl)-pyridin-3-yl]-amide] | 3.15
CC(C)n1cc(C(=O)c2cncc(NC(=O)c3cnccc3C(F)(F)F)c2)c2cncnc21 [Example 451, N-[5-(7-Isopropyl-7H-pyrrolo[2,3-d]pyrimidine-5-carbonyl)-pyridin-3-yl]-4-trifluoromethyl-nicotinamide] | 7.17
CC(C)n1cc(C(=O)c2cncc(NC(=O)c3cnn(CCC#N)c3)c2)c2cncnc21 [Example 452, 1-(2-Cyano-ethyl)-1H-pyrazole-4-carboxylic acid [5-(7-isopropyl-7H-pyrrolo[2,3-d]pyrimidine-5-carbonyl)-pyridin-3-yl]amide] | 0.542
CC(C)n1cc(C(=O)c2cncc(NC(=O)c3cc4cnccc4o3)c2)c2cncnc21 [Example 453, Furo[3,2-c]pyridine-2-carboxylic acid [5-(7-isopropyl-7H-pyrrolo[2,3-d]pyrimidine-5-carbonyl)-pyridin-3-yl]-amide] | 0.634
CC(C)n1cc(C(=O)c2cncc(NC(=O)c3cc4occc4cn3)c2)c2cncnc21 [Example 455, Furo[3,2-c]pyridine-6-carboxylic acid [5-(7-isopropyl-7H-pyrrolo[2,3-d]pyrimidine-5-carbonyl)-pyridin-3-yl]-amide] | 1.07
CC(C)n1cc(C(=O)c2cncc(NC(=O)c3cn(C)c4cnccc34)c2)c2cncnc21 [Example 457, 1-Methyl-1H-pyrrolo[2,3-c]pyridine-3-carboxylic acid [5-(7-isopropyl-7H-pyrrolo[2,3-d]pyrimidine-5-carbonyl)-pyridin-3-yl]-amide] | 0.674
CC(C)n1cc(C(=O)c2cncc(NC(=O)c3cc4n(n3)CCC4)c2)c2cncnc21 [Example 458, 5,6-Dihydro-4H-pyrrolo[1,2-b]pyrazole-2-carboxylic acid [5-(7-isopropyl-7H-pyrrolo[2,3-d]pyrimidine-5-carbonyl)-pyridin-3-yl]-amide] | 0.213
CC(C)n1cc(C(=O)c2cncc(NC(=O)c3csc(C4CCC4)n3)c2)c2cncnc21 [Example 459, 2-Cyclobutyl-thiazole-4-carboxylic acid [5-(7-isopropyl-7H-pyrrolo[2,3-d]pyrimidine-5-carbonyl)-pyridin-3-yl]-amide] | 0.00406
CC(C)n1cc(C(=O)c2cncc(NC(=O)c3ccncc3F)c2)c2cncnc21 [Example 460, 3-Fluoro-N-[5-(7-isopropyl-7H-pyrrolo[2,3-d]pyrimidine-5-carbonyl)-pyridin-3-yl]-isonicotinamide] | 9.8
CC(C)n1cc(C(=O)c2cncc(NC(=O)c3ccc(Cl)cn3)c2)c2cncnc21 [Example 466, 5-Chloro-pyridine-2-carboxylic acid[5-(7-isopropyl-7H-pyrrolo[2,3-d]pyrimidine-5-carbonyl)-pyridin-3-yl]-amide] | 0.4
CC(C)n1cc(C(=O)c2cncc(NC(=O)c3ccc4cccnc4n3)c2)c2cncnc21 [Example 467, 1,8-Naphthyridine-2-carboxylic acid[5-(7-isopropyl-7H-pyrrolo[2,3-d]pyrimidine-5-carbonyl)-pyridin-3-yl]-amide] | 0.538
CC(C)n1cc(C(=O)c2cncc(NC(=O)c3nncc4ccccc34)c2)c2cncnc21 [Example 470, Phthalazine-1-carboxylic acid [5-(7-isopropyl-7H-pyrrolo[2,3-d]pyrimidine-5-carbonyl)-pyridin-3-yl]-amide] | 0.166
CC(C)n1cc(C(=O)c2cncc(NC(=O)c3cnn4c3CCC4)c2)c2cncnc21 [Example 471, 5,6-Dihydro-4H-pyrrolo[1,2-b]pyrazole-3-carboxylic acid [5-(7-isopropyl-7H-pyrrolo[2,3-d]pyrimidine-5-carbonyl)-pyridin-3-yl]-amide] | 0.751
CC(C)n1cc(C(=O)c2cncc(NC(=O)c3ccc(C#N)nc3)c2)c2cncnc21 [Example 473, 6-Cyano-N-[5-(7-isopropyl-7H-pyrrolo[2,3-d]pyrimidine-5-carbonyl)-pyridin-3-yl]-nicotinamide] | 7.28
CC(C)n1cc(C(=O)c2cncc(NC(=O)c3cnn4cccnc34)c2)c2cncnc21 [Example 474, Pyrazolo[1,5-a]pyrimidine-3-carboxylic acid [5-(7-isopropyl-7H-pyrrolo[2,3-d]pyrimidine-5-carbonyl)-pyridin-3-yl]-amide] | 4.42
Cc1cccc2cc(C(=O)Nc3cncc(C(=O)c4cn(C(C)C)c5ncncc45)c3)nn12 [Example 476, 7-Methyl-pyrazolo[1,5-a]pyridine-2-carboxylic acid [5-(7-isopropyl-7H-pyrrolo[2,3-d]pyrimidine-5-carbonyl)-pyridin-3-yl]-amide] | 0.065
